Laboratory results reported in paper PMC9457941, “Synthesis and Kinase Inhibitory Potencies of Pyrazolo[3,4-g]isoquinolines” (Molecules, 2022).
Read-outs that look alike come from different tables or passages of the source.

Legend:
Assay type in all cases: biochemical
[1] = target: T1, MmCLK1 (Mus musculus, UniProt P22518); experiment: ADP-Glo kinase inhibition assay, CLK1; settings: for remaining activity at 1 µM: read-out: CLK1 % residual activity at 1 μM; for remaining activity at 10 µM: read-out: CLK1 % residual activity at 10 μM
T1 construct: host or cells: bacteria
Description: (§1) Kinase enzymatic activities were assayed in 384 well plates using the ADP-GloTM assay kit (Promega, Madison, WI, USA) according to the manufacturer’s guidance. Briefly, the reactions were carried out in a final volume of 6 μL for 30 min at 30 °C in an appropriate kinase buffer (10 mM MgCl2, 1 mM EGTA, 1 mM DTT, 25 mM Tris-HCl pH 7.5, 50 μg/mL heparin), with either protein or peptide as substrate in the presence of 10 μM ATP (40 mM Tris pH 7.5, 20 mM MgCl2 and 0.1 mg/mL of BSA). Afterward, 6 μL of ADP-GloTM Kinase Reagent was added to stop the kinase reaction. After an incubation time of 50 min at room temperature (RT), 12 μL of Kinase Detection Reagent was added for 1 h at RT. The transmitted signal was measured using the Envision (Perkin Elmer, Waltham, MA, USA) microplate luminometer and expressed in relative light unit (RLU). In order to determine the half maximal inhibitory concentration (IC50), the assays were performed in duplicate in the absence or presence of increasing doses of the tested compounds. GraphPad Prism6 software (GraphPad Software, San Diego, CA, USA) was used to fit dose–response curves and to determine the IC50 values. Kinase activities are expressed in the percentage of maximal activity, i.e., measured in the absence of an inhibitor. Peptide substrates were obtained from Proteogenix (Schiltigheim, France).
(§2) The following protein kinases were analyzed in this study: CDK5/p25 (human, recombinant, expressed in bacteria) was assayed with 0.8 μg/μL of histone H1 as substrate; CDK9/CyclinT (human, recombinant, expressed by baculovirus in Sf9 insect cells) were assayed with 0.27 μg/μL of the following peptide: […], as substrate; CK1ε (human, recombinant, expressed by baculovirus in Sf9 insect cells) was assayed with 0.022 μg/μL of the following peptide: […]pAYSITA (“Sp” stands for phosphorylated serine) as CK1-specific substrate; GSK3β (human, recombinant, expressed by baculovirus in Sf9 insect cells) were assayed with 0.010 μg/μL of GS-1 peptide, a GSK-3-selective substrate ([…]pEDEEE); Haspin-kd (human, kinase domain, amino acids 470–798, recombinant, expressed in bacteria) was assayed with 0.007 μg/μL of histone H3 (1–21) peptide ([…]) as substrate; Pim-1 (human proto-oncogene, recombinant, expressed in bacteria) was assayed with 0.8 μg/μL of histone H1 as substrate; MmCLK1 (from Mus musculus, recombinant, expressed in bacteria) was assayed with 0.027 μg/μL of the following peptide: […] as substrate; RnDYRK1A-kd (Rattus norvegicus, amino acids 1–499 including the kinase domain, recombinant, expressed in bacteria, DNA vector kindly provided by Dr. W. Becker, Aachen, Germany) was assayed with 0.033 μg/μL of the following peptide: […] as substrate.

[2] = target: T2, Pim-1 (Homo sapiens, UniProt P11309); experiment: ADP-Glo kinase inhibition assay, Pim-1; settings: 10 μM ATP, duplicate; for remaining activity at 1 µM: 1 μM compound, read-out: PIM1 % residual activity at 1 μM; for remaining activity at 10 µM: 10 μM compound, read-out: PIM1 % residual activity at 10 μM
T2 construct: host or cells: bacteria
Description: as §1, §2

[3] = target: T3, CDK5/p25 (Homo sapiens, UniProt Q00535); experiment: ADP-Glo kinase inhibition assay, CDK5/p25; settings: for remaining activity at 1 µM: read-out: CDK5 % residual activity at 1 μM; for remaining activity at 10 µM: read-out: CDK5 % residual activity at 10 μM
T3 construct: host or cells: bacteria
Description: as §1, §2

[4] = target: T4, CK1ε (Homo sapiens, UniProt P49674); experiment: ADP-Glo kinase inhibition assay, CK1ε; settings: 10 μM ATP, duplicate; for remaining activity at 1 µM: 1 μM compound, read-out: CK1 % residual activity at 1 μM; for remaining activity at 10 µM: 10 μM compound, read-out: CK1 % residual activity at 10 μM
T4 construct: host or cells: Sf9 insect cells (baculovirus)
Description: as §1, §2

[5] = target: T5, CDK9/CyclinT (Homo sapiens, UniProt P50750); experiment: ADP-Glo kinase inhibition assay, CDK9/CyclinT; settings: for remaining activity at 1 µM: read-out: CDK9 % residual activity at 1 μM; for remaining activity at 10 µM: read-out: CDK9 % residual activity at 10 μM; for IC50: 10 μM ATP, duplicate
T5 construct: host or cells: Sf9 insect cells (baculovirus)
Description: as §1, §2

[6] = target: T6, GSK3β (Homo sapiens, UniProt P49841); experiment: ADP-Glo kinase inhibition assay, GSK3β; settings: for remaining activity at 1 µM: read-out: GSK3 % residual activity at 1 μM; for remaining activity at 10 µM: read-out: GSK3 % residual activity at 10 μM; for IC50: 10 μM ATP, duplicate, read-out: GSK3 IC50
T6 construct: host or cells: Sf9 insect cells (baculovirus)
Description: as §1, §2

[7] = target: T7, Haspin-kd (human, kinase domain, amino acids 470–798) (Homo sapiens, UniProt Q8TF76); experiment: ADP-Glo kinase inhibition assay, Haspin; settings: for IC50: 10 μM ATP, duplicate; for remaining activity at 1 µM: read-out: Haspin % residual activity at 1 μM; for remaining activity at 10 µM: read-out: Haspin % residual activity at 10 μM
T7 construct: Haspin-kd (human, kinase domain, amino acids 470–798, recombinant, expressed in bacteria); host or cells: bacteria
T7 sequence (Q8TF76 470-798): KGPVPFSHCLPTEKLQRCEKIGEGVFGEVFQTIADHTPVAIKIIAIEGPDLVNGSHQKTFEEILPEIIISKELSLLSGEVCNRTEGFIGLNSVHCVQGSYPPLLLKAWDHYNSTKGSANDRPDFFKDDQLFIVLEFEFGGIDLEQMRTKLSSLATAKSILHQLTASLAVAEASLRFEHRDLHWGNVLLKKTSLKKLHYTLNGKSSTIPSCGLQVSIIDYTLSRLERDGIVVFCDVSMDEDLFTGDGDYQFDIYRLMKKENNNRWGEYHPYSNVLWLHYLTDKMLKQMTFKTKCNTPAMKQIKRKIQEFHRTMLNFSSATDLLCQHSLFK
Description: as §1

[8] = target: T8, RnDYRK1A-kd (Rattus norvegicus, UniProt Q63470); experiment: ADP-Glo kinase inhibition assay, DYRK1A; settings: for remaining activity at 1 µM: read-out: DYRK1A % residual activity at 1 μM; for remaining activity at 10 µM: read-out: DYRK1A % residual activity at 10 μM
T8 construct: RnDYRK1A-kd (Rattus norvegicus, amino acids 1–499 including the kinase domain, recombinant, expressed in bacteria); made in house; host or cells: bacteria
Description: as §1, §2

[9] = 10 μM ATP, duplicate, read-out: CLK1 IC50
[10] = 10 μM ATP, duplicate, read-out: DYRK1A IC50

T3 sequence (Q00535 whole entry): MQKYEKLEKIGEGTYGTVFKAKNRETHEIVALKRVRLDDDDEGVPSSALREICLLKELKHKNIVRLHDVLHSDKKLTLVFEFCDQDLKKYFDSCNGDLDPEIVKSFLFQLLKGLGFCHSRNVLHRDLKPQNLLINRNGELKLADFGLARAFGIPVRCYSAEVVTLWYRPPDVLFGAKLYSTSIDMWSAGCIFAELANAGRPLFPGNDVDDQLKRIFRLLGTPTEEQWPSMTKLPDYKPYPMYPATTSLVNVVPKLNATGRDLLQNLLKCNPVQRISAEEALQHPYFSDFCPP
T3 sequence (Q15078 99-307, further chain): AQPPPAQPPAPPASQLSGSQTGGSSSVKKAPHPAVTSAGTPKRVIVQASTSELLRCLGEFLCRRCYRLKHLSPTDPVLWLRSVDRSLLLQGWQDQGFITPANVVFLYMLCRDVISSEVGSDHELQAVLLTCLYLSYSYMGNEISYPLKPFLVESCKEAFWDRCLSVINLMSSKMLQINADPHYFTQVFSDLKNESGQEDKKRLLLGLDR
T2 sequence (P11309 whole entry): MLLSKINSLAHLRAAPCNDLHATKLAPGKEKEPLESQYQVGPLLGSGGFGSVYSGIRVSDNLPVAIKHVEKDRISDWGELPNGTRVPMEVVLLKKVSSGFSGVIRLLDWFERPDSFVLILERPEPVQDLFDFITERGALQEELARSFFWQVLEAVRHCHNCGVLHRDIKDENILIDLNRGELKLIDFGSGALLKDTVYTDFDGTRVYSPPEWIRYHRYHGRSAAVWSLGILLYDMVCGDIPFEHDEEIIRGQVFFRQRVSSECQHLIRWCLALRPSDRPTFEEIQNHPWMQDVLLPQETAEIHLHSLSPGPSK
T1 sequence (P22518 whole entry): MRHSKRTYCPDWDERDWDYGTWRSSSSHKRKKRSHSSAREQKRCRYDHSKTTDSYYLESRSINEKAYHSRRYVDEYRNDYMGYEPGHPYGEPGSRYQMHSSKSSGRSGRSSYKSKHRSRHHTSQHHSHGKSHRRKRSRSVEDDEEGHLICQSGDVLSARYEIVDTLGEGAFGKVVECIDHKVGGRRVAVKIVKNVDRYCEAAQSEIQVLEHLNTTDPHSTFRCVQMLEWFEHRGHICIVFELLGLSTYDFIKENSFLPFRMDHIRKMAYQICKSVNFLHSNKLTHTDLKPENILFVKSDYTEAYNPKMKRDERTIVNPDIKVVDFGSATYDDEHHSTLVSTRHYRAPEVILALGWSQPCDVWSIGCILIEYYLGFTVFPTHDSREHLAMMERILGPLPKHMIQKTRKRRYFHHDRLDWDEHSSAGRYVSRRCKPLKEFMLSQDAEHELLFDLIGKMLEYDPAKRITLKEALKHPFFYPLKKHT
T5 sequence (O60563 whole entry): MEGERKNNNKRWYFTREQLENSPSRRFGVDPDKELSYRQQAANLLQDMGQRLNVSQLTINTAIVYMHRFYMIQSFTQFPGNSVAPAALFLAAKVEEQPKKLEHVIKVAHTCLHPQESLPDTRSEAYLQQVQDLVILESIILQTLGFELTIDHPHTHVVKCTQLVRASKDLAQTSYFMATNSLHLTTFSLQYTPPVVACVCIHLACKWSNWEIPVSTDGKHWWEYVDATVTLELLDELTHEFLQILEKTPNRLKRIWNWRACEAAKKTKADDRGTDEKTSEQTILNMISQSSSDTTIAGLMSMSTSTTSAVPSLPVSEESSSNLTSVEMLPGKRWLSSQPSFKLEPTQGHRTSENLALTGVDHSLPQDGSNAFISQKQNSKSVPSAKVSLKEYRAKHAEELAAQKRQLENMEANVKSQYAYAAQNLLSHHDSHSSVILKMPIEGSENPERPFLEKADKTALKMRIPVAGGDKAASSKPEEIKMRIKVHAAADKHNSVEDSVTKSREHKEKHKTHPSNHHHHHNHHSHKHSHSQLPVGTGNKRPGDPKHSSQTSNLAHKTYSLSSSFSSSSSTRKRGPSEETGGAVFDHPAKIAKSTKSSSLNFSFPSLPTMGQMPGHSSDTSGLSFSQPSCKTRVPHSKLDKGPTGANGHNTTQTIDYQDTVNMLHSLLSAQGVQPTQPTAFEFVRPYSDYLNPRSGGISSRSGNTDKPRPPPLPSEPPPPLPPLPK
T5 sequence (P50750 whole entry): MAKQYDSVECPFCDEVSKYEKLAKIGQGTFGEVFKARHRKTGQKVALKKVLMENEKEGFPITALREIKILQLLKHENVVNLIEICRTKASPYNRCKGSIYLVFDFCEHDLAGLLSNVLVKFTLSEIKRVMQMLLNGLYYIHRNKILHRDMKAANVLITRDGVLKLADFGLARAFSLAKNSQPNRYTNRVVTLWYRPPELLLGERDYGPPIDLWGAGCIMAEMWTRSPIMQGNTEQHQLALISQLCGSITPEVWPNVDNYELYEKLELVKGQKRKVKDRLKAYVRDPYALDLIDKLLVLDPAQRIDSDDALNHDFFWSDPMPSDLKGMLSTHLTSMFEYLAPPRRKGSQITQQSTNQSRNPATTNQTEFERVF
T6 sequence (P49841 whole entry): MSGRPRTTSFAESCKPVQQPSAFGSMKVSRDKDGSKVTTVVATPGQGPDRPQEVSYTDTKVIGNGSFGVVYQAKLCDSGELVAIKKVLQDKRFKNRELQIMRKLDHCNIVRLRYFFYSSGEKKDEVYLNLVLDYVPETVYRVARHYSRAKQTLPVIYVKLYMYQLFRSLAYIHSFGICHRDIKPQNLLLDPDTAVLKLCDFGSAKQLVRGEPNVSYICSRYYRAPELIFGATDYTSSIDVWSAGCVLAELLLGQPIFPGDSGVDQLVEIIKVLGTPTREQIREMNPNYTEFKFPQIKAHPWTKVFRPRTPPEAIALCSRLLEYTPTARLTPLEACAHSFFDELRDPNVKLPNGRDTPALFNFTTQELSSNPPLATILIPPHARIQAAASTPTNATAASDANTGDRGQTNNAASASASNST
T4 sequence (P49674 whole entry): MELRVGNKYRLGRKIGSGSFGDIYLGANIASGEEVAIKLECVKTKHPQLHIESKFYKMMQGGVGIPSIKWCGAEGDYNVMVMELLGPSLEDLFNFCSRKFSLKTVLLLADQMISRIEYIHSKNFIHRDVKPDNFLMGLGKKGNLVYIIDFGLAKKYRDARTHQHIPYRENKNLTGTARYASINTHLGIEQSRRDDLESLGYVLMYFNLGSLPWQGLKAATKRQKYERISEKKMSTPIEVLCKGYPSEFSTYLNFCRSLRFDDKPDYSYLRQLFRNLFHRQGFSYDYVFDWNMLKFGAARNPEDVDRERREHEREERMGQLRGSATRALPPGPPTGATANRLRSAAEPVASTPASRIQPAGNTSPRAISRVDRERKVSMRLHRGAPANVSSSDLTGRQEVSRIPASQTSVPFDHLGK

| SMILES | remaining activity at 1 µM [1] | remaining activity at 10 µM [1] | remaining activity at 1 µM [2] | remaining activity at 10 µM [2] | remaining activity at 1 µM [3] | remaining activity at 10 µM [3] | remaining activity at 1 µM [4] | remaining activity at 10 µM [4] | remaining activity at 1 µM [5] | remaining activity at 10 µM [5] | remaining activity at 1 µM [6] | remaining activity at 10 µM [6] | IC50 [7] | remaining activity at 1 µM [7] | remaining activity at 10 µM [7] | remaining activity at 1 µM [8] | remaining activity at 10 µM [8] | IC50 [1, 9] | IC50 [5] | IC50 [8, 10] | further results |
| --- | --- | --- | --- | --- | --- | --- | --- | --- | --- | --- | --- | --- | --- | --- | --- | --- | --- | --- | --- | --- | --- |
| O=[N+]([O-])c1c2ccncc2cc2cn[nH]c12 [1a’] | 90% | 30% | 90% | 85% | 91% | 62% | 100% | 64% | 86% | 48% | 99% | 50% | 0.154 µM | 32% | 23% | 68% | 25% | – | – | – | IC50 ([1]; assumed on the basis of % of inhibition at 1 μM (less than 50%), read-out: CLK1 IC50 (assumed)): > 1 µM; IC50 ([8]; assumed on the basis of % of inhibition at 1 μM (less than 50%), read-out: DYRK1A IC50 (assumed)): > 1 µM |
| CCn1ncc2c(C)c3cnccc3c([N+](=O)[O-])c21 [Compound 3a, 1-Ethyl-4-methyl-9-nitro-1H-pyrazolo[3,4-g]isoquinoline] | 13% | 0% | 100% | 97% | 64% | 35% | 89% | 45% | 43% | 14% | 39% | 9% | 0.167 µM | 20% | 8% | 73% | 13% | 0.101 µM | 0.789 µM | – | IC50 [6]: 1.08 µM |
| CCn1ncc2cc3cnccc3c(N)c21 [Compound 2c, 1-Ethyl-1H-pyrazolo[3,4-g]isoquinolin-9-amine] | 34% | 8% | 91% | 60% | 65% | 28% | 84% | 48% | 80% | 50% | 82% | 40% | 0.062 µM | 17% | 3% | 23% | 6% | 0.564 µM | – | 0.25 µM | Selectivity Index (SI) Haspin vs. DYRK1A ([7]; Haspin vs. DYRK1A, which was more inhibited than CLK1): 4.0 |
| CCn1ncc2cc3cnccc3c([N+](=O)[O-])c21 [Compound 1c, 1-Ethyl-9-nitro-1H-pyrazolo[3,4-g]isoquinoline] | 25% | 6% | 100% | 70% | 94% | 79% | 90% | 58% | 46% | 23% | 53% | 19% | 0.066 µM | 38% | 15% | 44% | 18% | 0.166 µM | 0.428 µM | 1.11 µM | – |
| Cn1ncc2cc3cnccc3c([N+](=O)[O-])c21 [Compound 1b, 1-Methyl-9-nitro-1H-pyrazolo[3,4-g]isoquinoline] | 42% | 10% | 100% | 54% | 95% | 43% | 88% | 53% | 57% | 35% | 73% | 33% | 0.057 µM | 26% | 9% | 41% | 11% | 0.071 µM | – | 0.681 µM | – |
| CCc1c2cnccc2c([N+](=O)[O-])c2c1cnn2CC [Compound 3b, 1,4-Diethyl-9-nitro-1H-pyrazolo[3,4-g]isoquinoline] | 19% | 0% | 100% | 89% | 33% | 16% | 82% | 25% | 25% | 0% | 28% | 3% | – | 63% | 10% | 100% | 9% | – | – | – | inhibition at 1 µM ([7]; read-out: Haspin inhibition at 1 μM, 1 μM compound, % inhibition): ≤ 50% |
| CCCc1c2cnccc2c([N+](=O)[O-])c2c1cnn2CC [Compound 3c, 1-Ethyl-9-nitro-4-propyl-1H-pyrazolo[3,4-g]isoquinoline] | 23% | 4% | 86% | 88% | 54% | 10% | 81% | 35% | 18% | 4% | 12% | 5% | 0.497 µM | 25% | 17% | 95% | 41% | 0.363 µM | 0.322 µM | – | IC50 [6]: 0.218 µM |
